Experimental data taken from a melting point compilation (Tetko et al.; mined from patent text by program, amines drawn as free bases though some values may be those of a salt).

Compound	melting point
CC(CCCc1ccccc1)c1cc2oc(=O)c3c(c2cc1O)CCCC3 (stereo not given)	184 to 193 °C
CCOCc1nc2c(N)nc3ccccc3c2n1CCCNS(C)(=O)=O	208 to 210 °C
O=C1c2ccccc2S(=O)(=O)N1CF	96 to 98 °C
CSc1cc(SC)c2ccc3c(SC)cc(SC)c4ccc1c2c43	275 to 280 °C
FC(F)(F)c1cnc(Cc2ccc(Cl)cc2)c(Cl)c1	54 to 56 °C
COC(=O)C1(N(O)C(=O)Cc2c(C)cc(Cl)cc2C)CCN(OC)CC1	228 to 231 °C
N#Cc1ccccc1S(=O)(=O)c1ccc(N)cc1	177 to 179 °C
CNC(=O)NS(=O)(=O)c1cc(CCNC(=O)/C=C/c2cccs2)ccc1OCCOC	99 °C
O=S(Cc1ccc(Cl)c(Cl)c1)c1nc2cnccc2[nH]1 (stereo not given)	198 to 201 °C
CCOCc1nc(N)c2nc(C)cnc2n1	166 to 168 °C
COc1ccc(C(=O)c2ccccc2N)cc1	76 to 77 °C
NS(=O)(=O)c1cc(C(=O)O)cc(NCCc2ccncc2)c1-c1ccccc1	216 to 218 °C
CCOCC1=C(C(=O)OCC)C(c2cccc([N+](=O)[O-])c2)C(C(=O)OCC)=C(C)N1 (stereo not given)	120 to 122 °C
CCN(C(=O)OCc1ccccc1)c1c(OC)cc(C(=O)OC)cc1OC	85 to 86 °C
COc1ccc(-c2cc(C(F)(F)F)n3cnc(C#N)c3n2)cc1	192 °C
COc1ccc(SCc2ccccc2)c(Cl)c1Cl	116 to 117 °C
O=c1ccn([C@H]2C=C[C@@H](O)CC2)c(=O)[nH]1 (racemic)	161 to 162 °C
CCCCOc1ccc(Nc2c([N+](=O)[O-])ccc(Cl)c2C(=O)O)cc1	166 to 169 °C
N#Cc1c(N2CC[C@@H](C3(N)CC3)C2)ccc2c(=O)c(C(=O)O)cn([C@@H]3C[C@@H]3F)c12	138 to 140 °C
O=C(c1cc(=O)c2cc3[nH]c(=O)oc3cc2[nH]1)N1CCC(Cc2ccccc2)CC1	215 °C
Cn1nc(-c2c(F)cccc2Cl)nc1-c1cc(-c2cccc(C(F)(F)F)c2)sc1Cl	53 to 54 °C
CC(N)=CC(=O)C1CNC(C)S1(=O)=O (stereo not given)	113 to 115 °C
N#Cc1cc(F)c(-n2c(=O)cc(C(F)(F)F)[nH]c2=O)cc1Oc1ccc2ccccc2c1	92 °C
O=C(Nc1ccc(N2CC3CCC3C2)nc1)c1cc2cc(C(F)(F)F)cnc2n1Cc1cccc(F)c1 (stereo not given)	172 to 174 °C
COC(=O)C(C)(C)OCc1cc2nc(Cl)ccc2n1S(=O)(=O)c1ccccc1	84 to 87 °C

Compound	melting point
CC=C(c1ccc(F)cc1)c1ccc(F)cc1	43 to 44 °C
CC[C@H](COC)n1cc(Cl)nc(N2CCc3cc(OC)cc(Br)c32)c1=O	100 to 102 °C
CCOC(=O)c1ccc(Cl)c(S(=O)(=O)Cl)c1	143 to 145 °C
COCCN1CCN(Cc2ccc3c(c2)-c2[nH]nc(-c4ccsc4)c2C3)CC1	140 to 142 °C
O=c1c2cc(Oc3ccc(Cl)cc3)ccc2ncn1Cc1cccnc1	130 to 133 °C
COc1cccc(CCNC(=O)c2nc(N)sc2-c2ccncc2)c1OC	167 to 168 °C
O=C(O)Cc1cc(C(=O)c2ccccc2)ccc1O	205 °C
COc1ccc(C2=C(CC(C)N(C)C(C)C)C(=O)NCCC2)cc1 (stereo not given)	86 to 88 °C
Nc1ccc(Cl)c(C(=O)c2sc(Nc3ccc4nc[nH]c4c3)nc2N)c1Cl	235 to 237 °C
CON1CCC2(CC1)C(O)=C(c1c(C)cc(C)cc1C)C(=O)N2CC1CC1	223 to 225 °C
CC(=O)NCC1CC(c2ccc(F)cc2)=NO1 (stereo not given)	167 to 168 °C
COc1ccc2c(c1)CCCC2N(CC(=O)O)C(=O)C(C)CSC(C)=O (stereo not given)	158 to 161 °C
N#CC(=NNc1ccc(C(F)(F)F)cc1)C(=O)NCc1ccc(Cl)nc1	204 to 205 °C
COc1cc(C(=O)O)nc(-c2ccc(N(C)C)cc2)c1	142 to 148 °C
CCOC(=O)c1cn(C(C)(C)C)c2nc(SCC)c(F)cc2c1=O	159 to 160 °C
CC(=O)Oc1ccc(/C=C2/Sc3nc(Nc4ccc(N5CCN(C)CC5)cc4)ncc3NC2=O)cc1	168 to 171 °C
FC(F)(F)Cn1c(-c2c(Cl)cccc2Cl)nc(-c2ccncc2)c1-c1ccc(Cl)cc1	213 to 214 °C
CC(C)(C)OC(=O)COc1cc(NC(=O)OC(C)(C)C)c(NC(=O)CC(=O)c2cccc(-n3ccnc3)c2)cc1-c1ccc(F)cc1	82 to 85 °C
CC(C)n1cnc2c(Nc3ccccn3)nc(F)nc21	150 to 152 °C
COc1ccc(CSc2ccc3c(c2)C=CC(C)(C)O3)cc1	58 to 59 °C
COc1c(N2CC[C@@H](C3(NCCO)CC3)C2)c(F)cc2c(=O)c(C(=O)O)cn([C@@H]3C[C@@H]3F)c12	153 to 155 °C
CC1CC2C3CCC4=CC(=O)C=CC4(C)C3=CCC2(C)C1C(=O)CN1CCN(c2cc(NCC(C)(C)C)nc(NCC(C)(C)C)n2)CC1 (stereo not given)	140 to 150 °C
Cc1nnn2c1CO[C@H]1CN(C(=O)OC(C)(C)C)C[C@@H]12	195 to 196 °C
CCCCCCCCc1ccc(N=Nc2ccc(OC(=O)CCOCCCCCCC)cc2)cc1	42.1 °C
CC(C)(C)NC(=O)c1ccc(Cl)nc1	108 to 110 °C
